This note sets out measurements from US20160251403A1, “PEPTIDE COMBINATIONS AND USES THEREOF IN TREATING DUST MITE ALLERGY” (ALK-ABELLO A/S, priority 2013, published 2016).

No end group written: not given here.

Test [1] deals with DRB1_1201 (Homo sapiens, UniProt P01903+P01911, A100R/A169T/D57E/D86V/F55L/H45Y/K41T/L162R/M171V/P40S/Q125H/Q178H/Q39Y/Q99D/R42G/S66L/T262R/V114A/V67L/W38E/Y59H/Y61H/Y89S). The test can be described thus: Competitive MHC class II binding assay, DRB1_1201.
In test [2] the test system is DQA10401-DQB10402. Put plainly: Competitive MHC class II binding assay, DQA10401-DQB10402. Conditions: for IC50: read-out: HLA-DQA10401-DQB10402, positive binding at cutoff 1000 nM.
For test [3], the target named is DRB1_1101 (Homo sapiens, UniProt P01903+P01911, A100R/A169T/A87E/I96F/K41T/L162R/M171V/P40S/Q125H/Q178H/Q39Y/Q99D/R42S/S66Y/T262R/V115G/W38E). The test can be described thus: Competitive MHC class II binding assay, DRB1_1101.
For test [4], the target named is DPA10201-DPB11401. The test can be described thus: Competitive MHC class II binding assay, DPA10201-DPB11401. Conditions: read-out: HLA-DPA10201-DPB11401; positive binding at cutoff 1000 nM.
Test [5] concerns the target DRB1_0301 (Homo sapiens, UniProt P01903+P01911, A100K/A102G/A103R/A169T/F55Y/I96L/K41T/L162R/M171V/P40S/Q125H/Q178H/Q39Y/R42S/S66N/T106N/T262R/W38E/Y61H). Put plainly: Competitive MHC class II binding assay, DRB1_0301.
Test [6] has as its system allergen specific T cells. The test can be described thus: T cell proliferation assay (72 h) with allergen-specific T cell lines from house dust mite allergic donors; % responders. The note with it: FIGS. 9b, 9c; subset of 22 donors having about 88% worldwide HLA Class II coverage. Type of test: cell-based, human. The protocol:
This example includes a description of how peptides (singly or in combination) were screened for T cell reactivity in the donor population.
The T cell reactivity to peptides disclosed herein was determined either by measuring T cell proliferation of T cell lines specific to the allergens investigated or by measuring the cytokine production of allergen-specific T cells obtained from cultured PBMCs.
TCL specific to the six allergens rproDer p 1, rproDer f 1, rDer p 2, rDer f 2, Der p 4 and Der p 7, respectively or specific to the combination of all six allergens were established from peripheral blood mononuclear cells (PBMCs) of each donor.
PBMCs were isolated from freshly drawn heparinized blood by gradient centrifugation on lymphoprep (Nycomed, Norway), washed twice and re-suspended in RPMI 1640 medium with HEPES and ultraglutamine (Cambrex, Belgium) supplemented with 5% v/v AB-serum (Cambrex, Belgium), 100 units/ml penicillin, and 0.1 mg/ml streptomycin (Sigma, St Louis, USA) (referred to as AB-medium). Isolated PBMCs were CD8 depleted by Macs magnetic depletion according to the manufacturer's instructions (Miltenyi Biotec, Bergisch Gladbach, Germany). […]
The capacity of the different peptides to stimulate allergen specific T cells is analyzed in a standard 72 h T cell proliferation assay, as described in Henmar H et al., Clin Exp Immunol 2008; […]):316-23. […]

In test [1], `CC[C@H](C)[C@H](NC(=O)CNC(=O)[C@@H](NC(=O)[C@@H](NC(=O)[C@@H](NC(=O)[C@H](C)NC(=O)[C@@H](NC(=O)[C@H](C)NC(=O)[C@H](CO)NC(=O)[C@H](Cc1c[nH]cn1)NC(=O)[C@@H](NC(=O)[C@H](CCC(N)=O)NC(=O)[C@H](C)NC(=O)[C@H](CC(C)C)NC(=O)[C@H](C)NC(=O)[C@H](CCC(=O)O)NC(=O)[C@@H](N)CCCNC(=N)N)[C@@H](C)O)[C@@H](C)CC)C(C)C)[C@@H](C)CC)[C@@H](C)CC)C(=O)N[C@@H](CCCCN)C(=O)N[C@@H](CC(=O)O)C(=O)N[C@@H](CC(C)C)C(=O)N[C@@H](CC(=O)O)C(=O)N[C@@H](C)C(=O)O` [pep-130] returned an IC50 of less than 1000 nM.

For DNGYGYFAANIDLMMIEE [pep-010], the “binding to HLA Class II allele DQA10401-DQB10402” value in test [2] (as shown in Table 16a) is listed as “binds to at least the same alleles as peptide 041”. For the same molecule, in test [2], the IC50 is less than 1000 nM.

With GSGSSWAFSGVAATESAYLA [pep-044], the IC50 in test [3] and in test [2] was less than 1000 nM in each case.

For the molecule HAVNIVGYSNAQGVDYWIVR [pep-058], the IC50 in test [3] was less than 1000 nM.

As for LVGDNGVLASAIATHAKIRD [pep-110], the IC50 in test [4] and in test [5] was less than 1000 nM in each case. The “fraction of donors with T cell response (% donor response)” value in test [6] is on record as “higher percentage donor response than the other peptides”.

In the case of LVKGQQYDIKYTWNVPKIAPK [pep-131], the “fraction of donors with T cell response (% donor response)” value in test [6] was “higher percentage donor response than the other peptides”.
